Results from ChEMBL document CHEMBL4477206, “Benzylpiperidine-Linked Diarylthiazoles as Potential Anti-Alzheimer's Agents: Synthesis and Biological Evaluation” (J Med Chem, 2016).

Columns and labels:
[1] = in vitro; settings: human
Description: Cytotoxicity against human SH-SY5Y cells assessed as cell viability at 40 uM after 24 hrs by MTT assay

[2] = in vitro; settings: human; remark: listed apart in the source
Description: Cytotoxicity against human SH-SY5Y cells assessed as cell viability at 80 uM after 24 hrs by MTT assay

[3] = biological target: T1, Acetylcholinesterase (Homo sapiens, UniProt P22303); assay: Inhibition of human erythrocyte AChE using ATCI as substrate preincubated for 30 mins followed by substrate addition measured after 30 mins by Ellman assay
T1 sequence (P22303 whole entry): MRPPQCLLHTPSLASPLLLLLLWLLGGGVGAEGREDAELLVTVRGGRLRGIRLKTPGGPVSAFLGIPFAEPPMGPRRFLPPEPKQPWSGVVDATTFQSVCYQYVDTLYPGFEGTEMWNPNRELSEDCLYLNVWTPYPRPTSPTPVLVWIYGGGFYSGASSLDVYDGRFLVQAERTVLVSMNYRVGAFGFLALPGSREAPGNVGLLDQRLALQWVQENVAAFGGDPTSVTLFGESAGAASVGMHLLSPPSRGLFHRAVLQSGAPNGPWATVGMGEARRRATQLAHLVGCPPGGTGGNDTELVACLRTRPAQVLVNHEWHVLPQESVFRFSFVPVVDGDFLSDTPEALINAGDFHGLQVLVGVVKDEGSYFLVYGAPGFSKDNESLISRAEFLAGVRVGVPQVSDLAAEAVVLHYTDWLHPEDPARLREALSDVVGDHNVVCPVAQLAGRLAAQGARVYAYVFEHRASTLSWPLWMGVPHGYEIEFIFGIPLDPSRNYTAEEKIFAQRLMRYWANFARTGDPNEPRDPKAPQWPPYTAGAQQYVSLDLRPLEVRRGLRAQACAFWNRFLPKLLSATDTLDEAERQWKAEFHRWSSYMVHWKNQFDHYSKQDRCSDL

[4] = Permeability of the compound at 100 ug/ml incubated for 120 mins by PAMPA; type: ADME; settings: read-out: Peff
[5] = biological target: T1, Acetylcholinesterase; settings: at 10 µM
Description: Inhibition of human erythrocyte AChE-induced Abeta (1 to 42) aggregation at 10 uM incubated for 24 hrs by thioflavin-T fluorescence assay

[6] = biological target: Cholinesterase (Equus caballus, UniProt P81908); assay: Inhibition of equine serum BuChE using BTCI as substrate preincubated for 30 mins followed by substrate addition measured after 30 mins by Ellman assay
Sequence of Cholinesterase (P81908 whole entry): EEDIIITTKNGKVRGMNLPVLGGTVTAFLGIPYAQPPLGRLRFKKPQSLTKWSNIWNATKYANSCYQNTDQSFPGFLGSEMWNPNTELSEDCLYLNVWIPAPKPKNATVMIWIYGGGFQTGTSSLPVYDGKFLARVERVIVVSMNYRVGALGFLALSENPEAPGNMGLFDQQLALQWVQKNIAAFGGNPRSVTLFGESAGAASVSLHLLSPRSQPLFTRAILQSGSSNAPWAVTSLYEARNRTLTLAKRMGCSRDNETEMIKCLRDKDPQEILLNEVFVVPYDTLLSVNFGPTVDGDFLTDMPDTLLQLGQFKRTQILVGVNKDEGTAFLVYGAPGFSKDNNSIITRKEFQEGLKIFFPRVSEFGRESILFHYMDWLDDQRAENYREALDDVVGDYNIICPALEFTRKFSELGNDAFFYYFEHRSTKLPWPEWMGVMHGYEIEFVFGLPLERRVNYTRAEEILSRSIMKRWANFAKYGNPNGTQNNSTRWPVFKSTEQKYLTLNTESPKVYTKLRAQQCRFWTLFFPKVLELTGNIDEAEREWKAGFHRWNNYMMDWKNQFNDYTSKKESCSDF

| Structure (SMILES) | viability at 24 h, 40 µM ([1]; SH-SY5Y cells) [%] | viability at 24 h, 80 µM ([2]; SH-SY5Y cells) [%] | IC50 [3] [nM] | Papp at 2 h, 100 ug/ml [4] [×10⁻⁶ cm/s] | inhibition [5] [%] | IC50 [6] [nM] | viability at 24 h, 40 µM ([1]; sh-sy5y) [%] | viability at 24 h, 80 µM ([2]; sh-sy5y) [%] |
| --- | --- | --- | --- | --- | --- | --- | --- | --- |
| COc1ccc(-c2nc(NC(=O)C3CCN(Cc4ccccc4C(F)(F)F)CC3)sc2-c2ccc(OC)cc2)cc1 | 92.4 | 93.1 | 680 | 12.3 | 14.5 | 1920 | – | – |
| Cc1ccc(-c2nc(NC(=O)C3CCN(Cc4ccc(C#N)cc4)CC3)sc2-c2ccc(C)cc2)cc1 | – | – | 1280 | – | – | 5320 | – | – |
| COc1ccc(CN2CCC(Nc3nc(-c4ccc(Cl)cc4)c(-c4ccc(Cl)cc4)s3)CC2)cc1 | – | – | 1120 | – | – | 1570 | – | – |
| COc1ccc(-c2nc(NC3CCN(Cc4ccc(C)cc4)CC3)sc2-c2ccc(OC)cc2)cc1 | 95.4 | 89.5 | 830 | 9.6 | 19.2 | 2250 | – | – |
| Cc1ccc(-c2nc(NC3CCN(Cc4ccccc4)CC3)sc2-c2ccc(C)cc2)cc1 | – | – | 1280 | – | – | 3590 | – | – |
| COc1ccc(-c2nc(NC(=O)C3CCN(Cc4cc(F)cc(F)c4)CC3)sc2-c2ccc(OC)cc2)cc1 | – | – | 2450 | – | – | > 10000 | – | – |
| COc1ccc(-c2nc(NC(=O)C3CCN(Cc4c(F)cccc4Cl)CC3)sc2-c2ccc(OC)cc2)cc1 | 92.9 | 91.6 | 410 | 8.2 | 16.6 | 1570 | – | – |
| N#Cc1ccc(CN2CCC(Nc3nc(-c4ccc(Cl)cc4)c(-c4ccc(Cl)cc4)s3)CC2)cc1 | – | – | 1020 | – | – | 1720 | – | – |
| Cc1ccc(-c2nc(NC(=O)C3CCN(Cc4cccc(F)c4)CC3)sc2-c2ccc(C)cc2)cc1 | – | – | > 10000 | – | – | 1970 | – | – |
| Cc1ccc(-c2nc(NCC3CCN(Cc4ccc(F)cc4)CC3)sc2-c2ccc(C)cc2)cc1 | 91.8 | 89.7 | 370 | 10.1 | 25.8 | 1950 | – | – |
| COc1ccc(-c2nc(NCC3CCN(Cc4ccccc4C(F)(F)F)CC3)sc2-c2ccc(OC)cc2)cc1 | 94.2 | 90.1 | 690 | 8.4 | 20.6 | 8010 | – | – |
| O=C(Nc1nc(-c2ccc(Cl)cc2)c(-c2ccc(Cl)cc2)s1)C1CCN(Cc2ccc(OC(F)(F)F)cc2)CC1 | – | – | 1380 | – | – | 2180 | – | – |
| Cc1ccc(-c2nc(NC(=O)C3CCN(Cc4ccc([N+](=O)[O-])cc4)CC3)sc2-c2ccc(C)cc2)cc1 | – | – | 2320 | – | – | > 10000 | – | – |
| O=C(Nc1nc(-c2ccc(Cl)cc2)c(-c2ccc(Cl)cc2)s1)C1CCN(Cc2ccc(F)cc2Cl)CC1 | – | – | 3700 | – | – | > 10000 | – | – |
| Cc1ccc(CN2CCC(Nc3nc(-c4ccc(Cl)cc4)c(-c4ccc(Cl)cc4)s3)CC2)cc1 | – | – | 3190 | – | – | > 10000 | – | – |
| Cc1ccccc1CN1CCC(CNc2nc(-c3ccc(Cl)cc3)c(-c3ccc(Cl)cc3)s2)CC1 | 95.4 | 90.9 | 870 | 8.8 | 23.3 | 1430 | – | – |
| Cc1ccc(CN2CCC(Nc3nc(-c4ccc(C)cc4)c(-c4ccc(C)cc4)s3)CC2)cc1 | – | – | 1090 | – | – | 6030 | – | – |
| COc1ccc(-c2nc(NCC3CCN(Cc4c(F)cccc4Cl)CC3)sc2-c2ccc(OC)cc2)cc1 | 94.2 | 87.1 | 360 | 12.2 | 27.2 | 2150 | – | – |
| Fc1ccc(CN2CCC(CNc3nc(-c4ccc(Cl)cc4)c(-c4ccc(Cl)cc4)s3)CC2)c(C(F)(F)F)c1 | – | – | 1240 | – | – | 3300 | – | – |
| Cc1ccccc1CN1CCC(C(=O)Nc2nc(-c3ccc(Cl)cc3)c(-c3ccc(Cl)cc3)s2)CC1 | – | – | 1100 | – | – | 1040 | – | – |
| Cc1ccc(-c2nc(NC(=O)C3CCN(Cc4c(F)cccc4Cl)CC3)sc2-c2ccc(C)cc2)cc1 | – | – | 2880 | – | – | 2770 | – | – |
| N#Cc1ccccc1CN1CCC(C(=O)Nc2nc(-c3ccc(Cl)cc3)c(-c3ccc(Cl)cc3)s2)CC1 | – | – | 1770 | – | – | 1590 | – | – |
| Cc1ccc(-c2nc(NC(=O)C3CCN(Cc4cc(F)cc(F)c4)CC3)sc2-c2ccc(C)cc2)cc1 | – | – | 2500 | – | – | 3510 | – | – |

| Structure (SMILES) | viability at 24 h, 40 µM ([1]; SH-SY5Y cells) [%] | viability at 24 h, 80 µM ([2]; SH-SY5Y cells) [%] | IC50 [3] [nM] | Papp at 2 h, 100 ug/ml [4] [×10⁻⁶ cm/s] | inhibition [5] [%] | IC50 [6] [nM] | viability at 24 h, 40 µM ([1]; sh-sy5y) [%] | viability at 24 h, 80 µM ([2]; sh-sy5y) [%] |
| --- | --- | --- | --- | --- | --- | --- | --- | --- |
| O=C(Nc1nc(-c2ccc(Cl)cc2)c(-c2ccc(Cl)cc2)s1)C1CCN(Cc2cccc(F)c2)CC1 | 93.6 | 91.1 | 650 | 15.9 | 18.8 | 720 | – | – |
| Fc1ccc(CN2CCC(CNc3nc(-c4ccc(Cl)cc4)c(-c4ccc(Cl)cc4)s3)CC2)c(Cl)c1 | 92.7 | 88.9 | 520 | 13.2 | 15 | 740 | – | – |
| Cc1ccc(-c2nc(NCC3CCN(Cc4ccccc4C(F)(F)F)CC3)sc2-c2ccc(C)cc2)cc1 | 93.5 | 91.7 | 400 | 12.8 | 26.4 | 2200 | – | – |
| Cc1ccc(-c2nc(NCC3CCN(Cc4ccccc4C)CC3)sc2-c2ccc(C)cc2)cc1 | 91.4 | 90.1 | 500 | 10.6 | 16.2 | 2510 | – | – |
| Cc1ccc(-c2nc(NC(=O)C3CCN(Cc4ccccc4C(F)(F)F)CC3)sc2-c2ccc(C)cc2)cc1 | – | – | 7570 | – | – | 1880 | – | – |
| COc1ccc(-c2nc(NC3CCN(Cc4ccc(C(F)(F)F)cc4)CC3)sc2-c2ccc(OC)cc2)cc1 | 94.5 | 90.4 | 750 | 8.6 | 18.9 | 1680 | – | – |
| COc1ccc(-c2nc(NC(=O)C3CCN(Cc4ccccc4C)CC3)sc2-c2ccc(OC)cc2)cc1 | – | – | 1340 | – | – | 1850 | – | – |
| O=C(Nc1nc(-c2ccc(Cl)cc2)c(-c2ccc(Cl)cc2)s1)C1CCN(Cc2cc(F)cc(F)c2)CC1 | 95.6 | 92.8 | 640 | 8.8 | 12 | 3030 | – | – |
| Fc1cc(F)cc(CN2CCC(CNc3nc(-c4ccc(Cl)cc4)c(-c4ccc(Cl)cc4)s3)CC2)c1 | 92.4 | 91.7 | 630 | 12.5 | 19.4 | 820 | – | – |
| O=C(Nc1nc(-c2ccc(Cl)cc2)c(-c2ccc(Cl)cc2)s1)C1CCN(Cc2ccccc2C(F)(F)F)CC1 | – | – | 2770 | – | – | 3360 | – | – |
| Cc1ccc(-c2nc(NC(=O)C3CCN(Cc4ccc(F)cc4Cl)CC3)sc2-c2ccc(C)cc2)cc1 | – | – | > 10000 | – | – | 1600 | – | – |
| COc1ccc(CN2CCC(Nc3nc(-c4ccc(OC)cc4)c(-c4ccc(OC)cc4)s3)CC2)cc1 | 92.1 | 89.5 | 770 | 10.3 | 11.4 | 2530 | – | – |
| COc1ccc(-c2nc(NCC3CCN(Cc4ccccc4C)CC3)sc2-c2ccc(OC)cc2)cc1 | 91.6 | 87.2 | 590 | 12.3 | 25.6 | 2210 | – | – |
| COc1ccc(-c2nc(NC(=O)C3CCN(Cc4ccc(F)cc4)CC3)sc2-c2ccc(OC)cc2)cc1 | – | – | 1160 | – | – | 1730 | – | – |
| COc1ccc(-c2nc(NC(=O)C3CCN(Cc4ccc(F)cc4C(F)(F)F)CC3)sc2-c2ccc(OC)cc2)cc1 | – | – | 1230 | – | – | 1780 | – | – |
| Cc1ccc(-c2nc(NC(=O)C3CCN(Cc4ccc(C(F)(F)F)cc4)CC3)sc2-c2ccc(C)cc2)cc1 | – | – | > 10000 | – | – | 2780 | – | – |
| Clc1ccc(-c2nc(NC3CCN(Cc4ccccc4)CC3)sc2-c2ccc(Cl)cc2)cc1 | – | – | 1380 | – | – | 3300 | – | – |
| COc1cc2c(cc1OC)C(=O)C(CC1CCN(Cc3ccccc3)CC1)C2 (configuration not stated) [DONEPEZIL] | – | – | – | – | – | – | 96.9 | 92.3 |
| COc1ccc(-c2nc(NC(=O)C3CCN(Cc4cccc(F)c4)CC3)sc2-c2ccc(OC)cc2)cc1 | 94 | 90.3 | 570 | 12.5 | 21.2 | 1540 | – | – |
| Fc1ccc(CN2CCC(Nc3nc(-c4ccc(Cl)cc4)c(-c4ccc(Cl)cc4)s3)CC2)c(Cl)c1 | 94.2 | 92.5 | 370 | 8.4 | 27.5 | 1970 | – | – |
| COc1ccc(-c2nc(NC(=O)C3CCN(Cc4ccccc4C#N)CC3)sc2-c2ccc(OC)cc2)cc1 | – | – | 2800 | – | – | 3580 | – | – |
| Cc1ccc(-c2nc(NC(=O)C3CCN(Cc4ccccc4C)CC3)sc2-c2ccc(C)cc2)cc1 | – | – | > 10000 | – | – | 1500 | – | – |
